From paper PMC7179167 (Molecules, 2020)
In brackets after ≈: the same amount, converted by molar mass. Like-named read-outs stand apart in the source and are kept apart here.

Experiments:
[1] = DPPH free radical scavenging assay; assay type: biochemical; conditions: concentration of 20µg/l, mean ± SD of three experiments
Protocol: Antioxidant activity of the newly synthesized 13a–i, 14a–i, 11a–c and 12a–c were assessed in terms of hydrogen-donating or radical-scavenging ability via the stable free radical 1,1-diphenyl-2-picrylhydrazyl (DPPH) using ascorbic acid as a reference at a concentration of […].
The free radical scavenging activity (RSA) was assessed spectrophotometically at 517 nm via decoloration of the solution of the DPPH (1,1-diphenyl-2-picrylhydrazyl) radical according to Brand-Williams et al. 1995 [32]. DPPH solution was prepared by dissolving of 20 mg of DPPH in one liter of dimethylsulphoxide (DMSO). A freshly prepared DPPH solution was used for the assay. Each of the tested compounds 11a–c, 12a–c, 13a–i, 14a–i and 15a,b were dissolved in DMSO (1mg/mL). A volume of […] of a DMSO stock solution of the test compounds was added to 2 mL of freshly prepared DPPH in DMSO solution. The mixtures were shaken in a vortex (2500 rpm) for 1 min and then left to stand for 15, 30, 45 and 60 min in the dark room. The absorbance was measured at 517 nm against blank using UV visible spectrophotometer 2401 PC (Shimadzu, Kyoto, Japan). Lower absorbance of the reaction mixture indicated higher free radical scavenging activity was analyzed from the graph plots of the inhibition percentage against the compound concentration. The experiment was carried out in triplicate and averaged. The scavenging activity was calculated according to the following formula:Scavenging ability (%) = (A517 of control - A517of sample / A 517 of control) ×100(1)

[2] = test system: HepG-2 (human liver cancer); test: MTT cytotoxicity assay, HepG-2; assay type: cell-based; conditions: for inhibition at 100 µg/mL: HepG2, 100 µg/ml, 48 h, read-out: Growth Inhibition (%) HepG-2; for IC50: HepG2, 48 h post-treatment
Protocol: (§1) MCF-7 (human breast cancer), HCT-116 (human colon cancer) and HepG2 (human liver cancer) cell lines were obtained from Karolinska Institute, Stockholm, Sweden. All cells were maintained in RPMI 1640 medium. The media were supplemented with 10% heat-inactivated fetal bovine serum plus 1% antibiotic-antimycoticmixture (10,000 U/mL of potassium penicillin, 10,000 μg/mL of streptomycin sulfate, 25 μg/mL of amphotericin B and 1% of L glutamine (Biowest, USA)). BJ-1 of a human skin fibroblast derived from normal foreskin was obtained from ATCC® CRL-2522™ as a frozen ampoule with about 1 × 10^6 cells per 1 ml volume. BJ-1 was maintained in MEM with 2 mM of L-glutamine and Earle’s salts medium.
(§2) Cell viability was studied using the MTT 3-(4,5-dimethylthiazol-2-yl)-2,5-diphenyl-tetrazolium bromide (Bio Basic Canada Inc. Toronto, Canada) assay [33]. The steps were executed in a sterile laminar air flow cabinet biosafety class II level (Baker, SG403INT; Sanford, ME, USA). All incubations were carried out at 37 °C in a 5% CO2 incubator under a humidified atmosphere of 95% (Sheldon, TC2323; Cornelius, OR, USA). Cells were seeded into 96-well microtiter plastic plates at a concentration of (10^4 cells/well) and allowed to adhere for 24 h. The medium was aspirated and then added to the cells with the test compounds 11a–c, 12a–c, 13a–i, 14a–i and 15a,b at a single dose of 100 μg/mL in DMSO. After incubation of the medium for 48 h, 40 μL of MTT salt (2.5 μg/mL) was added to each well and then incubated for an additional 4 h. To stop the reaction and dissolve any formed formazan crystals, 200 μL of 10% sodium dodecyl sulfate (SDS) were added to each well and incubated overnight at 37 °C. The amount of formazan product was measured at 595 nm with a reference wavelength of 690 nm as a background using a microplate reader (Bio-Rad Laboratories, model 3350, California, USA). For the untreated cells (negative control), the medium was added instead of the tested compounds. […] Dimethylsulfoxide (DMSO) was the vehicle used for dissolution of the testing compound, and its final concentration on the cells was less than 0.2%. At the same dilution, the solvent concentration was the same for all drugs and between the control and drug treatments.

[3] = test system: MCF-7 (human breast cancer); test: MTT cytotoxicity assay, MCF-7; assay type: cell-based; conditions: for inhibition at 100 µg/mL: MCF7, 100 µg/ml, 48 h, read-out: Growth Inhibition (%) MCF-7; for IC50: MCF7, 48 h post-treatment
Protocol: as §1, §2

[4] = test system: HCT-116 (human colon cancer); test: MTT cytotoxicity assay, HCT-116; assay type: cell-based; conditions: for inhibition at 100 µg/mL / IC50: Homo sapiens; for inhibition at 100 µg/mL: HCT-116, 100 µg/ml, 48 h, read-out: Growth Inhibition (%) HCT-116; for IC50: HCT-116, 48 h
[5] = test system: normal skin fibroblast cells (BJ-1); test: MTT cytotoxicity assay, normal skin fibroblast BJ-1; assay type: cell-based; conditions: Homo sapiens, 48 h, read-out: Growth Inhibition (%) BJ-1
Protocol: as §1, §2

[6] = 15 min, read-out: Scavenging Activity (%) on DPPH radicals at 15 min
[7] = 30 min, read-out: Scavenging Activity (%) on DPPH radicals at 30 min
[8] = 45 min, read-out: Scavenging Activity (%) on DPPH radicals at 45 min
[9] = 60 min, read-out: Scavenging Activity (%) on DPPH radicals at 60 min

Row | Compound | inhibition [1, 6] [%] | inhibition [1, 7] [%] | inhibition [1, 8] [%] | inhibition [1, 9] [%] | melting point [°C] | inhibition at 100 µg/mL [2] [%] | IC50 [2] [µg/mL] | inhibition at 100 µg/mL [3] [%] | IC50 [3] [µg/mL] | inhibition at 100 µg/mL [4] [%] | IC50 ([4]; 48 h post-treatment) [µg/mL] | inhibition at 100 µg/mL [5] [%] | IC50 HCT-116 ([4]; 48 h post-treatment) [µg/mL]
1 | O=C1O[C@H]([C@@H](O)CO)C(O)=C1O [Ascorbic acid, ascorbic acid, reference compound] | 94.4 ± 1.74 | 97.5 ± 1.32 | 98.78 ± 0.94 | 99.67 ± 0.28 | – | – | – | – | – | – | – | – | –
2 | O=C(c1ccccc1)n1cc(C2=NNC3(C2)C(=O)Nc2ccccc23)c2ccccc21 (centres unmarked) [Compound 13d, 5’-(N-Benzoyl-1H-indol-3-yl)-2’,4’-dihydrospiro(indoline-3,3’-pyrazol)-2-one] | 19.3 ± 1.24 | 31.3 ± 1.81 | 25.9 ± 1.24 | 39.7 ± 1.99 | 307 to 309 | 82.7 | 60.9 (≈ 150 µM) | 96.4 | 25.4 (≈ 62.5 µM) | 94.6 | 26.9 (≈ 66.2 µM) | 7 | –
3 | O=C1Nc2ccccc2C12CC(c1cn(S(=O)(=O)c3ccccc3[N+](=O)[O-])c3ccccc13)=NN2 (centres unmarked) [Compound 13i, 5’-(N-(2-Nitro-benzensulfonyl)-1H-indol-3-yl)-2’,4’-dihydrospiro (indoline-3,3’-pyrazol)-2-one] | – | – | – | – | 210 to 212 | 96.8 | – | 97.8 | – | 97.7 | – | 69.4 | –
4 | O=C1Nc2ccccc2C12CC(c1c[nH]c3ccccc13)=NN2c1ccccc1 (centres unmarked) [Compound 14a, 5’-(1H-Indol-3-yl)-2’-phenyl-2’,4’-dihydrospiro(indoline-3,3’-pyrazol)-2-one] | 41.1 ± 2.05 | 51.5 ± 1.91 | 54 ± 2.06 | 59.2 ± 2.14 | 124 to 126 | – | – | 90.4 | 32.3 (≈ 85.4 µM) | 91.2 | 36.2 (≈ 95.7 µM) | 14.2 | –
5 | CCn1cc(C2=NN(c3ccccc3)C3(C2)C(=O)Nc2ccccc23)c2ccccc21 (centres unmarked) [Compound 14b, 5’-(N-Ethyl-1H-indol-3-yl)-2’-phenyl-2’,4’-dihydrospiro(indoline-3,3’-pyrazol)-2-one] | 42.4 ± 1.45 | 58.1 ± 1.28 | 60.3 ± 1.66 | 66 ± 1.64 | 108 to 110 | – | – | 80.3 | 36.3 (≈ 89.3 µM) | 84.6 | 40.1 (≈ 98.6 µM) | 8.1 | –
6 | O=C1Nc2ccccc2C12CC(c1cn(Cc3ccccc3)c3ccccc13)=NN2c1ccccc1 (centres unmarked) [Compound 14c, 5’-(N-Benzyl-1H-indol-3-yl)-2’-phenyl-2’,4’-dihydrospiro(indoline-3,3’-pyrazol)-2-one] | 14.8 ± 1.36 | 22.6 ± 1.79 | 26.3 ± 1.23 | 39.5 ± 1.61 | 96 to 98 | – | – | 92.3 | 32.5 (≈ 69.4 µM) | 91.8 | 40.5 (≈ 86.4 µM) | 13.6 | –
7 | O=C(c1ccccc1)n1cc(C2=NN(c3ccccc3)C3(C2)C(=O)Nc2ccccc23)c2ccccc21 (centres unmarked) [Compound 14d, 5’-(N-Benzoyl-1H-indol-3-yl)-2’-phenyl-2’,4’-dihydrospiro(indoline-3,3’-pyrazol)-2-one] | 39.9 ± 1.75 | 41.8 ± 1.49 | 45 ± 1.37 | 55.4 ± 1.33 | 100 to 102 | – | – | 94 | 31.6 (≈ 65.5 µM) | 96.2 | 30.7 (≈ 63.6 µM) | 9.5 | –
8 | O=C(c1ccccc1Cl)n1cc(C2=NN(c3ccccc3)C3(C2)C(=O)Nc2ccccc23)c2ccccc21 (centres unmarked) [Compound 14e, 5’-(N-(2-Chlorobenzoyl)-1H-indol-3-yl)-2’-phenyl-2’,4’-dihydrospiro(indoline-3,3’-pyrazol)-2-one] | 17.9 ± 1.23 | 28.2 ± 1.27 | 30.9 ± 1.98 | 34.9 ± 1.72 | 78 to 80 | – | – | 85.3 | 54 (≈ 104 µM) | 35.1 | – | 16.6 | –
9 | O=C(c1ccc(Cl)cc1)n1cc(C2=NN(c3ccccc3)C3(C2)C(=O)Nc2ccccc23)c2ccccc21 (centres unmarked) [Compound 14f, 5’-(N-(4-Chlorobenzoyl)-1H-indol-3-yl)-2’-phenyl-2’,4’-dihydrospiro(indoline-3,3’-pyrazol)-2-one] | 9.05 ± 1.63 | 10.2 ± 1.83 | 16.2 ± 1.21 | 22.9 ± 1.62 | 162 to 164 | – | – | 89.3 | 31.2 (≈ 60.3 µM) | 91.4 | 35.8 (≈ 69.2 µM) | 14.5 | –
10 | O=C1Nc2ccccc2C12CC(c1cn(S(=O)(=O)c3ccc(Br)cc3)c3ccccc13)=NN2c1ccccc1 (centres unmarked) [Compound 14g, 5’-(N-(4-Bromo-benzenesulfonyl)-1H-indol-3-yl)-2’-phenyl-2’,4’-dihydrospiro(indoline-3,3’-pyrazol)-2-one] | 8.39 ± 1.14 | 11.9 ± 1.23 | 14.1 ± 2.01 | 26.6 ± 2.13 | 132 to 134 | – | – | 90.6 | 37.4 (≈ 62.6 µM) | 92.1 | 38 (≈ 63.6 µM) | 16 | –
11 | O=C1Nc2ccccc2C12CC(c1cn(S(=O)(=O)c3ccc(Cl)cc3)c3ccccc13)=NN2c1ccccc1 (centres unmarked) [Compound 14h, 5’-(N-(4-Chloro-benzenesulfonyl)-1H-indol-3-yl)-2’-phenyl-2’,4’-dihydrospiro(indoline-3,3’-pyrazol)-2-one] | 57.9 ± 1.36 | 67.3 ± 1.35 | 72 ± 1.82 | 86 ± 2.17 | 110 to 112 | – | – | 94 | – | 96.2 | – | 86.5 | –
12 | O=C1Nc2ccccc2C12CC(c1cn(S(=O)(=O)c3ccccc3[N+](=O)[O-])c3ccccc13)=NN2c1ccccc1 (centres unmarked) [Compound 14i, 5’-(N-(2-Nitro-benzenesulfonyl)-1H-indol-3-yl)-2’-phenyl-2’,4’-dihydrospiro(indoline-3,3’-pyrazol)-2-one] | – | – | – | – | 152 to 154 | – | – | 52.3 | – | 35.1 | – | 78.6 | –
13 | COc1cccc2c1C(=O)c1c(O)c3c(c(O)c1C2=O)C[C@@](O)(C(=O)CO)C[C@@H]3O[C@H]1C[C@H](N)[C@H](O)[C@H](C)O1 [Doxorubicin, doxorubicin, reference compound] | – | – | – | – | – | 100 | 21.6 (≈ 39.7 µM) | 96.8 | 37.6 (≈ 69.2 µM) | 100 | 21.6 (≈ 39.7 µM) | 0 | 26.1 (≈ 48 µM)
